Experiment [1] has as its target T1, N-type calcium channel (Homo sapiens, UniProt Q00975).
T1 construct: Human neuroblastoma cells IMR-32 were obtained from ATCC; host or cells: IMR-32 human neuroblastoma cells differentiated with dibutyl cAMP and bromodeoxyuridine
In words: Antagonistic activity on N-type calcium channel (fluorescence dye method), IMR-32 cells, changed procedure. Conditions: Table 3, 60 mM KCl stimulation, calculated from the inhibition rates, read-out: N-type inhibition pIC50 (converted). The experiment is classed as cell-based. On the procedure: (§1) Human neuroblastoma cells IMR-32 were obtained from ATCC (American Type Culture Collection). The medium used was a Phenol Red-free Eagle minimum essential medium (GIBCO) containing earle's salts supplement, 2 mM of L-glutamine (GIBCO), 1 mM of sodium pyruvate (pH 6.5) (GIBCO), antibiotic/antimicotic mixture (GIBCO) and 10% fetal calf serum (Cell Culture Technologies). 3 ml of 1×10^5/ml IMR-32 cells were spread on a glass dish (Iwaki Glass Co., Ltd.) having a diameter of 35 mm which was treated with poly-D-lysin (SIGMA) and collagen (COLLAGEN VITROGEN 100, Collagen Colo.). After the culture for 2 days, 1 mM (final concentration) of dibutyl cAMP and 2.5 μM of bromodeoxyuridine (SIGMA) were added. After the culture for additional 10 to 14 days, the cells were subjected to the activity determination. The medium for IMR-32 cells thus prepared was replaced with 1 ml of Phenol Red-free Eagle minimum essential medium (GIBCO) containing 1 ml of 10 μM fura-2/AM (Dojin Kagaku, Co.) and earle's salts supplement, and the incubation was conducted at 25° C. for 1 hour.
Then the medium was replaced with Phenol Red-free Eagle minimum essential medium (GIBCO) containing earle's salts supplement, from which fura-2/AM had been removed. After the incubation at 37° C. for 1 hour, the medium was replaced with a recording medium (20 mM of HEPES-KOH, 115 mM of NaCl, 5.4 mM of KCl, 0.8 mM of MgCl2, 1.8 mM of CaCl2 and 13.8 mM of D-glucose). Antagonistic activity on N-type calcium channel was determined and analyzed by using a fluorescence microscope (Nikon Corporation) and an image analysis device ARGUS 50 (Hamamatsu Photonics). In particular, a recording medium (20 mM of HEPES-KOH, 115 mM of NaCl, 5.4 mM of KCl, 0.8 mM of MgCl2, 1.8 mM of CaCl2 and 13.8 mM of D-glucose) containing 1 μM of Nifedipine was given to the cells by reflux by a Y-tube method. Then a stimulating agent containing 60 mM of potassium chloride was rapidly given by the Y-tube method. Thereafter stimulating agents containing 60 mM of potassium chloride and 0.1, 1 or 10 μM of test compound were successively rapidly given by the Y-tube method to determine the antagonistic activity on the channel. Finally, a stimulating agent containing 60 mM of potassium chloride and 1 μM of omega conotoxin GVIA (Peptide institute, inc.) was rapidly given by the Y-tube method to realize a condition of 100% inhibition of N-type calcium channel.
The same procedure as that of the above-described tests was repeated except for the following changes: 60 mM of potassium chloride-containing stimulating agent was rapidly given by the Y-tube method while the calcium concentration change in the cells was examined in terms of N-type calcium channel activity. […] A change in calcium concentration in the cells was determined.

In experiment [2] the target is T1, N-type calcium channel. Description: Antagonistic activity on N-type calcium channel (fluorescence dye method), IMR-32 cells, in presence of 1 μM Nifedipine. To be noted: Table 2, 60 mM KCl stimulation, fura-2, read-out: N-type inhibition pIC50 (converted). Format: cell-based. On the procedure: as §1, with “The medium for IMR-32 cells thus prepared was replaced with 1 ml of Phenol Red-free Eagle minimum essential medium (GIBCO) containing 1 ml of 10 μM fura-2/AM (Dojin Kagaku, Co.) and earle's salts supplement, and the incubation was conducted at 25° C. for 1 hour.” left out
Then the medium was replaced with Phenol Red-free Eagle minimum essential medium (GIBCO) containing earle's salts supplement, from which fura-2/AM had been removed. […] Antagonistic activity on N-type calcium channel was determined and analyzed by using a fluorescence microscope (Nikon Corporation) and an image analysis device ARGUS 50 (Hamamatsu Photonics). […]

Molecules are shown by their SMILES.

T1 sequence (Q00975 whole entry): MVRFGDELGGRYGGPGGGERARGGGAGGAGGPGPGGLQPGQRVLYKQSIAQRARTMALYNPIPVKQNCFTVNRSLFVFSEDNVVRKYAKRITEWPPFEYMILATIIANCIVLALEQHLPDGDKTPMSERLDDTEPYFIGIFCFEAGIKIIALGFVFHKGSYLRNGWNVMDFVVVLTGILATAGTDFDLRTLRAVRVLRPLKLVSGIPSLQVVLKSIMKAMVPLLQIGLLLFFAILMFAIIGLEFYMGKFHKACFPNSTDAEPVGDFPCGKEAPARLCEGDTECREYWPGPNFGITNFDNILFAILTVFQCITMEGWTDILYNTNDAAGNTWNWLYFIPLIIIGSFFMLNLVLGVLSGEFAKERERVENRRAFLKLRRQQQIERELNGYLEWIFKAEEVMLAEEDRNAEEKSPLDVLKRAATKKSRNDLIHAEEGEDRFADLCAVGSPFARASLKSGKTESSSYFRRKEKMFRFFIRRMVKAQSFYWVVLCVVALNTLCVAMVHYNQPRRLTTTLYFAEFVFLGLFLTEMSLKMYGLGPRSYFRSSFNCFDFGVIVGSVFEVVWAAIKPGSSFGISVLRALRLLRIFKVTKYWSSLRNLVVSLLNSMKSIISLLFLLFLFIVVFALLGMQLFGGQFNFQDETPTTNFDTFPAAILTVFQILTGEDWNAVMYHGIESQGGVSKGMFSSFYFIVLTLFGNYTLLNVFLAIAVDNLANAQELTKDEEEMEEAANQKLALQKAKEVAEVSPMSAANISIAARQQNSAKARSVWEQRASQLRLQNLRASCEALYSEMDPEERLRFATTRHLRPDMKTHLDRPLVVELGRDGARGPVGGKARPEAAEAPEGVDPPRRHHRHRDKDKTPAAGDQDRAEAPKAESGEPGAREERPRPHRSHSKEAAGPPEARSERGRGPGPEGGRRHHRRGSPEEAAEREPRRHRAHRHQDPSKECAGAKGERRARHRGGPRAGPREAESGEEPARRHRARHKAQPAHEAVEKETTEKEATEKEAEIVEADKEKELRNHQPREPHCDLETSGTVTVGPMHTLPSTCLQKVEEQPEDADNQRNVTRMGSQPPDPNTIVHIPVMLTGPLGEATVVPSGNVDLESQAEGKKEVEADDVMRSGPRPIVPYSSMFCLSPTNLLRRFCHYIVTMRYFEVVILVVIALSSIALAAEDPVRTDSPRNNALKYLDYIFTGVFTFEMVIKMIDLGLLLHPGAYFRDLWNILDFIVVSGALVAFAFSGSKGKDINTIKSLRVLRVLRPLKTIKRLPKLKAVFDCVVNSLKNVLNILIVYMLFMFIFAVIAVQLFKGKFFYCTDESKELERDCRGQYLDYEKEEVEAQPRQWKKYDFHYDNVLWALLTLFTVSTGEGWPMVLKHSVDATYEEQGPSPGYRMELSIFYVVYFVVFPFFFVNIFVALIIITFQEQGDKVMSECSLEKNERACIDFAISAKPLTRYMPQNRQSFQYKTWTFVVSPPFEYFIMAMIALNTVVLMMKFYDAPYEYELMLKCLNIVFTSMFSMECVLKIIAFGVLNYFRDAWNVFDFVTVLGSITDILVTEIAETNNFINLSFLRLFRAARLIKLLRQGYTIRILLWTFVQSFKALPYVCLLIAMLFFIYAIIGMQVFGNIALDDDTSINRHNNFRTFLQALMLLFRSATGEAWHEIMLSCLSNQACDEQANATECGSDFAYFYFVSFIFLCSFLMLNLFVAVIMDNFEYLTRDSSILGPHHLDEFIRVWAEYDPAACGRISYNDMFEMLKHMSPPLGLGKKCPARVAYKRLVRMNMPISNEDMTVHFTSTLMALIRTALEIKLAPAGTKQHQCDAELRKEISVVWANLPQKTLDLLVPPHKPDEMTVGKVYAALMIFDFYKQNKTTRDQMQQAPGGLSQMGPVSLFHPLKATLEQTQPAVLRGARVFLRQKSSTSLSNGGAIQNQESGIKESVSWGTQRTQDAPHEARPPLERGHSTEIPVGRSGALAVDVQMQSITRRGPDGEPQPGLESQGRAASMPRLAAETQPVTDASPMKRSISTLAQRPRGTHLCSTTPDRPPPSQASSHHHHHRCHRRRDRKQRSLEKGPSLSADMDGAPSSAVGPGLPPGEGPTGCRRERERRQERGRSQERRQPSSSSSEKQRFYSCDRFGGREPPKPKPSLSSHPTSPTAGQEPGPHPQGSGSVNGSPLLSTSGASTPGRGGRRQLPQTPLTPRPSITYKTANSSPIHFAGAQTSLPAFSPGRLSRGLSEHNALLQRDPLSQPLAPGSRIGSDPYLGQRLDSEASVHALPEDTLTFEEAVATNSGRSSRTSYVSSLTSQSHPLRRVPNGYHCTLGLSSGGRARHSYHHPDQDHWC
T1 sequence (P54289 25-956 partner limits assumed): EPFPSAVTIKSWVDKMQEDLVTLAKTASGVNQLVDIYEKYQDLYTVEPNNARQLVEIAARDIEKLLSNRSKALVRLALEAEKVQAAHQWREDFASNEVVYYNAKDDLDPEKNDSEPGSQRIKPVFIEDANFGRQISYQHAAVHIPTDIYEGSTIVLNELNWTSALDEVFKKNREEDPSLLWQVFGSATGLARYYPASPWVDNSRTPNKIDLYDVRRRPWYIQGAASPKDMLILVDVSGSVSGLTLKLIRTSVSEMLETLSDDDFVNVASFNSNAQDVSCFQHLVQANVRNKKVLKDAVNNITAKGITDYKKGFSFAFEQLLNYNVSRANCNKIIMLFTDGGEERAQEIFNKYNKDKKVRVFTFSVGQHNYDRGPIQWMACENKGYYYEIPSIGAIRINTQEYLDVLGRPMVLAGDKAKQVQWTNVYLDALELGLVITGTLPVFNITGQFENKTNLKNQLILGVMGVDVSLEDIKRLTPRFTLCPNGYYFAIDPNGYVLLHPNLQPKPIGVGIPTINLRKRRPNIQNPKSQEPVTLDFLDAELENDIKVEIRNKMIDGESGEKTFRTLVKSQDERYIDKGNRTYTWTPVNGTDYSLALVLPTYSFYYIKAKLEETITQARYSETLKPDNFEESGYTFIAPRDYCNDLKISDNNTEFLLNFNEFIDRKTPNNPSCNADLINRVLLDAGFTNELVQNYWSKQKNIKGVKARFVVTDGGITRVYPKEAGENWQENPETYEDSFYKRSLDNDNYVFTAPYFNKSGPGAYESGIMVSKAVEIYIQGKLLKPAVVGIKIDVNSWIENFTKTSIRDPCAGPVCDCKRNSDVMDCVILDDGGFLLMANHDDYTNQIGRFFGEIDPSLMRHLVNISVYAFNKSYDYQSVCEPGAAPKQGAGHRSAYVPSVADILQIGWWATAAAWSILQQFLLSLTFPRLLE
T1 sequence (P54289 957-1103 partner limits assumed): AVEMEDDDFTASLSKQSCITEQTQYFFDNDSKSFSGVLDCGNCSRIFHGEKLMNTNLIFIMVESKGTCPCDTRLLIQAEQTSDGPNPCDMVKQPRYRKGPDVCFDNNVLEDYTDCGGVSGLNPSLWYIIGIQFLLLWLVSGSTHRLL
T1 sequence (P54284 whole entry partner): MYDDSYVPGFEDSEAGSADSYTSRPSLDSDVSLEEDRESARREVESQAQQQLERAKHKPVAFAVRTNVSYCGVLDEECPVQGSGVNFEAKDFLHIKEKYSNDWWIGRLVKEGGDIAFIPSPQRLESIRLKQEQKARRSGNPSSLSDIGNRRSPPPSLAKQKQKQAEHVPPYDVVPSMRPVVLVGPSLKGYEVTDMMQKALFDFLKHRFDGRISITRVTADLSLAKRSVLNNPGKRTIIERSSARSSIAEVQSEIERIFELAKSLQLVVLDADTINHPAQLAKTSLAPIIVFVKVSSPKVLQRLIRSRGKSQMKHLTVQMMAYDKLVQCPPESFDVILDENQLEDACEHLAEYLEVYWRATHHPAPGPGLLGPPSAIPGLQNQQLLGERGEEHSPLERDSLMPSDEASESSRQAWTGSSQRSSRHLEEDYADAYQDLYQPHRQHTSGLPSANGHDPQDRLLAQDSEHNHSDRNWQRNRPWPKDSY

`CC1=C(C(=O)O)C(c2cccc(Cl)c2)C(C(=O)NC/C=C/c2ccccc2)=C(COCCc2ccccc2)N1` (stereo not drawn) [Example 3, 4-(3-chlorophenyl)-2-methyl-6-(2-phenylethoxymethyl)-5-(3-phenyl-2-propene-1-ylcarbamoyl)-1,4-dihydro-pyridine-3-carboxylic acid]: the IC50 on N-type calcium channel [1] is 2510 nM; on N-type calcium channel [2], 2000 nM. `CC1=C(C(=O)O)C(c2cccc(Cl)c2)C(C(=O)NC/C=C/c2ccccc2)=C(COCCC2CCCCC2)N1` (stereo not drawn) [Example 4, 4-(3-chlorophenyl)-6-(2-cyclohexylethoxymethyl)-2-methyl-5-(3-phenyl-2-propene-1-ylcarbamoyl)-1,4-dihydropyridine-3-carboxylic acid]: the results for the IC50 on N-type calcium channel [1] and on N-type calcium channel [2] were 794 nM and 398 nM, respectively. Turning to `CC1=C(C(=O)O)C(c2cccc(Cl)c2)C(C(=O)NCCC(c2ccccc2)c2ccccc2)=C(COCCc2ccccn2)N1` (stereo not drawn) [Example 6, 4-(3-chlorophenyl)-5-(3,3-diphenylpropylcarbamoyl)-2-methyl-6-(2-(pyridine-2-yl)ethoxy)methyl-1,4-dihydropyridine-3-carboxylic acid], at N-type calcium channel [1], the IC50 is 2510 nM.

Turning to `COCC1=C(C(=O)OC)C(c2cccc(Cl)c2)C(C(=O)NCCC(c2ccccc2)c2ccccc2)=C(COCCN)N1` (stereo not drawn) [Example 11, Methyl 6-(2-aminoethoxy)methyl-4-(3-chlorophenyl)-5-(3,3-diphenylpropylcarbamoyl)-2-methoxymethyl-1,4-dihydropyridine-3-carboxylate], at N-type calcium channel [1], the IC50 was 2000 nM.

The record behind these values is US6610717B2, “Dihydropyridine derivatives” (Ajinomoto Co., Inc., priority 1999, dated 2003).
